This experiment concerns mouse colon cancer Colon26. Put plainly: Anti-tumor effect on mice transplanted with the mouse colon cancer Colon26. In kind it is in vivo. Particulars: 5 consecutive days, female CDF1 mice. From the text:
Tumor of mouse colon cancer, Colon26, maintained by serial subcutaneous subculture in BALB/cA mice, was minced into about 2-mm square blocks, and the blocks were transplanted subcutaneously on the dorsal part of a female CDF1 mice with a trocar. On the 7th day after tumor transplantation, the high-molecular weight conjugate of a resorcinol derivative (compound 1) of the present invention, and as a control, the included resorcinol derivative, 5-(2,4-dihydroxy-5-isopropyl-phenyl)-4-(4-methoxy-phenyl)-2,4-dihydro-[1,2,4]triazol-3-one), were administered intravenously to the mouse tail vein. Compound 1 of the present invention was dissolved in a 5% glucose injectable solution, and was administered once. The resorcinol derivative (the included compound) used as the control, was dissolved in DMSO, and TWEEN80 was added thereto, and then the mixture was diluted with a 5% glucose injectable solution. The dilution was administered once a day for 5 consecutive days. After the administration, the major diameter (L mm) and the minor diameter (W mm) of the tumor were measured regularly, and the tumor volume was calculated by the formula: (L×W^2)/2. Based on the tumor volume of the administration initiation day, the average relative tumor volume for each measurement day was determined (Table 1).

Each structure is given as a SMILES string.

`COc1ccc(-n2c(-c3cc(C(C)C)c(O)cc3O)n[nH]c2=O)cc1` [Included compound, 5-(2,4-dihydroxy-5-isopropyl-phenyl)-4-(4-methoxy-phenyl)-2,4-dihydro-[1,2,4]triazol-3-one]: the “average relative tumor volume” value is, setting by setting: (day 0 after administration, 50 mg/kg/day i.v.) 1.0; (day 0 after administration, 100 mg/kg/day i.v.) 1.0; (day 2 after administration, 50 mg/kg/day i.v.) 1.6; (day 2 after administration, 100 mg/kg/day i.v.) 1.1; (day 3 after administration, 50 mg/kg/day i.v.) 1.6; (day 3 after administration, 100 mg/kg/day i.v.) 0.7. Also, the “average relative tumor volume” value amounted to 2.5 (day 5 after administration, 50 mg/kg/day i.v.); 1.0 (day 5 after administration, 100 mg/kg/day i.v.); 2.5 (day 7 after administration, 50 mg/kg/day i.v.); 3.3 (day 7 after administration, 100 mg/kg/day i.v.); 6.7 (day 9 after administration, 50 mg/kg/day i.v.); 5.0 (day 9 after administration, 100 mg/kg/day i.v.). Moreover, the “average relative tumor volume” value reads like this: (day 12 after administration, 50 mg/kg/day i.v.) 10; (day 12 after administration, 100 mg/kg/day i.v.) 11; (day 14 after administration, 50 mg/kg/day i.v.) 13; (day 14 after administration, 100 mg/kg/day i.v.) 12.
